According to patent US20240158446A1, “CYCLIC COMPOUND HAVING SELECTIVE INHIBITORY ACTION ON KRAS OVER HRAS AND NRAS” (CHUGAI SEIYAKU KABUSHIKI KAISHA, priority 2021, published 2024):
Read-outs that look alike come from different tables or passages of the source. *1 amine or outer side, *2 acyl side, *3 side chain or, on linkers, in order; H or OH if unused. Where a SMILES comes first, the peptide text is derived from it. Bridges are numbered along the chain shown (N, C = ends). [ ]: non-standard residue; d: D form. The star is where a group is joined. hPhe(3,5-F2-4-CF3) = N[C@@H](CCc1cc(F)c(C(F)(F)F)c(F)c1)C(=O)O; hPhe(3-Cl-4-CF3) = N[C@@H](CCc1ccc(C(F)(F)F)c(Cl)c1)C(=O)O; NPrPhe(4-CF3) = CCCN[C@@H](Cc1ccc(C(F)(F)F)cc1)C(=O)O; X21 = Cc1ccc(C[C@@H](C(=O)[*:2])N(CC2CC2)[*:1])cc1; NPrPhe(4-Me) = CCCN[C@@H](Cc1ccc(C)cc1)C(=O)O; NEtPhe(4-Me) = CCN[C@@H](Cc1ccc(C)cc1)C(=O)O; NMeGly(cPent) = CN[C@H](C(=O)O)C1CCCC1; NMeD = CN[C@@H](CC(=O)O)C(=O)O; NMeL = CN[C@@H](CC(C)C)C(=O)O; hPip = O=C(O)[C@@H]1CCCCCN1; αMeS = C[C@](N)(CO)C(=O)O; Morpholide = C1CN(*)CCO1; NMeA = CN[C@@H](C)C(=O)O; Ac5c = NC1(C(=O)O)CCCC1; Aze = O=C(O)[C@@H]1CCN1; Ac3c = NC1(C(=O)O)CC1; NEtG = CCNCC(=O)O; Sar = CNCC(=O)O

How the values were obtained:
[1] = target: GDP-bound KRAS wild-type protein (Homo sapiens, UniProt P01116); test: Binding to KRAS by surface plasmon resonance (SPR), Single Cycle Kinetics; conditions: GDP-bound KRAS wild-type protein, read-out: KRAS KD
[2] = target: GDP-bound NRAS wild-type protein (Homo sapiens, UniProt P01111); test: Binding to NRAS by surface plasmon resonance (SPR), Single Cycle Kinetics; conditions: for NRAS/KRAS (ratio of KD value with respect to NRAS to KD value with respect to KRAS) / NRAS/KRAS (ratio of KD value for NRAS to KD value for KRAS): SPR, GDP-bound NRAS wild-type protein vs GDP-bound KRAS wild-type protein
[3] = target: GDP-bound HRAS wild-type protein (Homo sapiens, UniProt P01112); test: Binding to HRAS by surface plasmon resonance (SPR), Single Cycle Kinetics; conditions: for HRAS/KRAS (ratio of KD value with respect to HRAS to KD value with respect to KRAS) / HRAS/KRAS (ratio of KD value for HRAS to KD value for KRAS): SPR, GDP-bound HRAS wild-type protein vs GDP-bound KRAS wild-type protein
[4] = SPR Single Cycle Kinetics, 1:1 binding model

GDP-bound KRAS wild-type protein, sequence (P01116 whole entry): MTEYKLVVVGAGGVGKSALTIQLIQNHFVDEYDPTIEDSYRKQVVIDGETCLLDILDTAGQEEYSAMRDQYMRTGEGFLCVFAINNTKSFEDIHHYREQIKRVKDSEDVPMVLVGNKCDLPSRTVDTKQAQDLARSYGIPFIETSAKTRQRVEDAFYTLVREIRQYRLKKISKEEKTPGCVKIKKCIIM
GDP-bound NRAS wild-type protein, sequence (P01111 whole entry): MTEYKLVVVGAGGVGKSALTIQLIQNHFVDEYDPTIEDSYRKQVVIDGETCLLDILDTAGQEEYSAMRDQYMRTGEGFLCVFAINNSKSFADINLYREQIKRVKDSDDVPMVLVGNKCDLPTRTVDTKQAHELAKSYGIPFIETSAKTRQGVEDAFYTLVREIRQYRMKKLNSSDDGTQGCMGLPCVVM
GDP-bound HRAS wild-type protein, sequence (P01112 whole entry): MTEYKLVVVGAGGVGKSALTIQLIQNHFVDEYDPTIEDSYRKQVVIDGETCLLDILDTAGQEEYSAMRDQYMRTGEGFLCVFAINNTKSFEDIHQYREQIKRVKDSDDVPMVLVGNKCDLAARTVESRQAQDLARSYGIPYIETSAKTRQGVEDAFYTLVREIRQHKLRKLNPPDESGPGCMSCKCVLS

SMILES | Kd [1, 4] | NRAS/KRAS (ratio of KD value for NRAS to KD value for KRAS) [2] | HRAS/KRAS (ratio of KD value for HRAS to KD value for KRAS) [3] | further results
CC[C@H](C)[C@@H]1NC(=O)[C@H](CC(C)C)N(C)C(=O)C[C@@H](C(=O)N(C)C)N(C)C(=O)[C@H](C2CCCC2)N(C)C(=O)C2(CCC2)NC(=O)[C@@H]2CC(F)(F)CN2C(=O)[C@H](CCc2cc(F)c(C(F)(F)F)c(F)c2)NC(=O)CN(C)C(=O)[C@H](Cc2ccc(C(F)(F)F)cc2)N2CCCC[C@@H](C2=O)N(C)C(=O)CN(C)C1=O [PP0577] | 0.019 nM | – | – | NRAS/KRAS (ratio of KD value with respect to NRAS to KD value with respect to KRAS) [2]: C (A compound having a KD ratio of 0.1 or more and less than 3 is denoted as C); HRAS/KRAS (ratio of KD value with respect to HRAS to KD value with respect to KRAS) [3]: C (A compound having a KD ratio of 0.1 or more and less than 3 is denoted as C)
CCO[C@@H]1C[C@H]2C(=O)NC3(CCC3)C(=O)N(C)[C@@H](C(CC)CC)C(=O)N(C)C(C(C)C)CC(=O)N(C)[C@@H](CC)C(=O)N[C@@H]([C@@H](C)CC)C(=O)N(C)CC(=O)N(C)[C@H]3C/C=C\CCN(C3=O)[C@@H](Cc3ccc(C(F)(F)F)cc3)C(=O)N(C)CC(=O)N[C@@H](CCc3cc(F)c(C(F)(F)F)c(F)c3)C(=O)N2C1 (stereo partly drawn) [PP1589] | – | – | – | Kd ([1]; SPR, Single Cycle Kinetics, 1:1 binding model): 1.8 nM; NRAS/KRAS (ratio of KD value for NRAS to KD value for KRAS) ([2]; KD ratio class): A (a compound having 10 or more and less than 20 is denoted as A); HRAS/KRAS (ratio of KD value for HRAS to KD value for KRAS) ([3]; KD ratio class): A (a compound having 10 or more and less than 20 is denoted as A)
CC[C@H](C)[C@@H]1NC(=O)[C@H](CC(C)C)N(C)C(=O)C[C@@H](C(=O)N2CCOCC2)N(C)C(=O)[C@H](C2CCCC2)N(C)C(=O)C2(CCCC2)NC(=O)[C@@H]2CCCN2C(=O)[C@H](CCc2ccc(C(F)(F)F)c(Cl)c2)NC(=O)CN(C)C(=O)[C@H](Cc2ccc(C)cc2)N(CC2CC2)C(=O)[C@@H]2CCN2C(=O)[C@H](C)N(C)C1=O [PP0057] ([NMeL]I[NMeA][Aze][X21][Sar][hPhe(3-Cl-4-CF3)]P[Ac5c][NMeGly(cPent)][NMeD]-Morpholide; lactam N-11) | 0.21 nM | C (A compound having a KD ratio of 0.1 or more and less than 3 is denoted as C) | B (a compound having 3 or more and less than 10 is denoted as B) | –
CCO[C@@H]1C[C@H]2C(=O)NC3(CCC3)C(=O)N(C)[C@@H](C3CCCC3)C(=O)N(C)[C@H](C(=O)N(C)CC)CC(=O)N(C)[C@H]3CCCCCc4ccc(cc4)C[C@@H](C(=O)N(C)CC(=O)N[C@@H](CCc4ccc(C(F)(F)F)c(OC)c4)C(=O)N2C1)N1CC/C=C\C[C@@H](C1=O)N(C)C(=O)CN(C)C(=O)[C@H]([C@@H](C)CC)NC3=O [PP2118] | – | A (a compound having 10 or more and less than 20 is denoted as A) | B (a compound having 3 or more and less than 10 is denoted as B) | Kd ([1]; SPR, Single Cycle Kinetics): 0.15 nM
CCCN1C(=O)CN(CC)C(=O)CN(C)C(=O)[C@H]([C@@H](C)CC)NC(=O)[C@H](CC(C)C)N(C)C(=O)C[C@@H](C(=O)N2CCOCC2)N(C)C(=O)[C@H](C2CCCC2)N(C)C(=O)C2(CCCC2)NC(=O)[C@@H]2CCCN2C(=O)[C@H](CCc2ccc(C(F)(F)F)c(Cl)c2)NC(=O)CN(CC)C(=O)[C@@H]1Cc1ccc(C)cc1 [PP0069] ([NMeL]I[Sar][NEtG][NPrPhe(4-Me)][NEtG][hPhe(3-Cl-4-CF3)]P[Ac5c][NMeGly(cPent)][NMeD]-Morpholide; lactam N-11) | 6.9 nM | C (A compound having a KD ratio of 0.1 or more and less than 3 is denoted as C) | C (A compound having a KD ratio of 0.1 or more and less than 3 is denoted as C) | –
CCO[C@@H]1C[C@H]2C(=O)NC3(CC(C)(C)C3)C(=O)N(C)[C@@H](CC3CCC3)C(=O)N(C)[C@H](C(=O)N(C)C)CC(=O)N(C)[C@@H](COC)C(=O)N[C@@H]([C@@H](C)CC)C(=O)N(C3CC3)CC(=O)N(C)[C@H]3C/C=C\CCN(C3=O)[C@@H](Cc3ccc(C(F)(F)F)cc3)C(=O)N(C)CC(=O)N[C@@H](CCc3cc(F)c(C(F)(F)F)c(F)c3)C(=O)N2C1 [PP2769] | 2.5 nM | – | – | NRAS/KRAS (ratio of KD value with respect to GDP-bound NRAS wild-type protein to KD value with respect to KRAS) ([2]; SPR KD ratio NRAS/KRAS, class symbols): AA (a compound having 20 or more is denoted as AA); HRAS/KRAS (ratio of KD value with respect to GDP-bound HRAS wild-type protein to KD value with respect to KRAS) ([3]; SPR KD ratio HRAS/KRAS, class symbols): A (a compound having 10 or more and less than 20 is denoted as A)
CC[C@H](C)[C@@H]1NC(=O)[C@H](CC(C)C)N(C)C(=O)C[C@@H](C(=O)N2CCOCC2)N(C)C(=O)[C@H](CC(C)C)N(C)C(=O)C2(CCCC2)NC(=O)[C@@H]2CCCN2C(=O)[C@H](CCc2ccc(C(F)(F)F)c(Cl)c2)NC(=O)CN(C)C(=O)[C@H](Cc2ccc(C)cc2)N(CC)C(=O)[C@@H]2CCN2C(=O)[C@H](C)N(C)C1=O [PP0016] ([NMeL]I[NMeA][Aze][NEtPhe(4-Me)][Sar][hPhe(3-Cl-4-CF3)]P[Ac5c][NMeL][NMeD]-Morpholide; lactam N-11) | 1.6 nM | C (A compound having a KD ratio of 0.1 or more and less than 3 is denoted as C) | C (A compound having a KD ratio of 0.1 or more and less than 3 is denoted as C) | –
CCCN1C(=O)CN(C)C(=O)CN(C)C(=O)[C@H]([C@@H](C)CC)NC(=O)[C@@H]2CCCCCN2C(=O)C[C@@H](C(=O)N2CCOCC2)N(C)C(=O)[C@H](C2CCCC2)N(C)C(=O)C2(CCCC2)NC(=O)[C@@H]2CCCN2C(=O)[C@H](CCc2ccc(C(F)(F)F)c(Cl)c2)NC(=O)CN(C)C(=O)[C@@H]1Cc1ccc(C(F)(F)F)cc1 [PP0247] ([hPip]I[Sar][Sar][NPrPhe(4-CF3)][Sar][hPhe(3-Cl-4-CF3)]P[Ac5c][NMeGly(cPent)][NMeD]-Morpholide; lactam N-11) | 0.38 nM | B (a compound having 3 or more and less than 10 is denoted as B) | C (A compound having a KD ratio of 0.1 or more and less than 3 is denoted as C) | –
CCO[C@@H]1C[C@H]2C(=O)NC3(CC(C)(C)C3)C(=O)N(C)[C@@H](C(CC)CC)C(=O)N(C)[C@H](C(=O)N3CCCC3)CC(=O)N(C)[C@@H](C)C(=O)N[C@@H]([C@@H](C)CC)C(=O)N(C)CC(=O)N(C)[C@H]3C/C=C\CCN(C3=O)[C@@H](Cc3ccc(C)cc3)C(=O)N(C)CC(=O)N[C@@H](CCc3ccc(C(F)(F)F)c(Cl)c3)C(=O)N2C1 [PP2152] | – | AA (a compound having 20 or more is denoted as AA) | A (a compound having 10 or more and less than 20 is denoted as A) | Kd ([1]; SPR, Single Cycle Kinetics): 0.67 nM
CC[C@H](C)[C@@H]1NC(=O)[C@H](COC)N(C)C(=O)C[C@@H](C(=O)N2CCOCC2)N(C)C(=O)[C@H](C2CCCC2)N(C)C(=O)C2(CCC2)NC(=O)[C@@H]2C[C@H](OC)CN2C(=O)[C@H](CCc2cc(F)c(C(F)(F)F)c(F)c2)NC(=O)CN(C)C(=O)[C@H](Cc2ccc(C(F)(F)F)cc2)N2CCCCC[C@@H](C2=O)N(C)C(=O)CN(C)C1=O [PP0836] | – | B (a compound having 3 or more and less than 10 is denoted as B) | B (a compound having 3 or more and less than 10 is denoted as B) | Kd ([1]; SPR, Single Cycle Kinetics): 0.63 nM
CCCN1C(=O)[C@@H]2CCN2C(=O)[C@H](C)N(C)C(=O)[C@H]([C@@H](C)CC)NC(=O)[C@H](CC(C)C)N(C)C(=O)C[C@@H](C(=O)N2CCOCC2)N(C)C(=O)[C@H](C2CCCC2)N(C)C(=O)C2(CC2)NC(=O)[C@@H]2CCCN2C(=O)[C@H](CCc2ccc(C(F)(F)F)c(Cl)c2)NC(=O)CN(C)C(=O)[C@@H]1Cc1ccc(C(F)(F)F)cc1 [PP0224] ([NMeL]I[NMeA][Aze][NPrPhe(4-CF3)][Sar][hPhe(3-Cl-4-CF3)]P[Ac3c][NMeGly(cPent)][NMeD]-Morpholide; lactam N-11) | 0.22 nM | C (A compound having a KD ratio of 0.1 or more and less than 3 is denoted as C) | B (a compound having 3 or more and less than 10 is denoted as B) | –
CCCN1C(=O)CN(C)C(=O)CN(C)C(=O)[C@H]([C@@H](C)CC)NC(=O)[C@H](CC(C)C)N(C)C(=O)C[C@@H](C(=O)N(C)C)N(C)C(=O)[C@H](C2CCCC2)N(C)C(=O)[C@](C)(COC)NC(=O)[C@@H]2CCCN2C(=O)[C@H](CCc2cc(F)c(C(F)(F)F)c(F)c2)NC(=O)CN(C)C(=O)[C@@H]1Cc1ccc(C(F)(F)F)cc1 [PP0741] ([NMeL]I[Sar][Sar][NPrPhe(4-CF3)][Sar][hPhe(3,5-F2-4-CF3)]P[αMeS](Me)[NMeGly(cPent)][NMeD]-NMe2; lactam N-11) | 0.28 nM | – | – | NRAS/KRAS (ratio of KD value with respect to NRAS to KD value with respect to KRAS) [2]: B (a compound having 3 or more and less than 10 is denoted as B); HRAS/KRAS (ratio of KD value with respect to HRAS to KD value with respect to KRAS) [3]: B (a compound having 3 or more and less than 10 is denoted as B)
